Values quoted from earlier work as cited in patent US6054469A, “Substituted tetrahydropyridine derivatives acting on 5-HT receptors” (Merck Sharp & Dohme Ltd., priority 1995, dated 2000).

Conditions: therapeutic doses

In the case of `CNS(=O)(=O)Cc1ccc2[nH]cc(CCN(C)C)c2c1` [sumatriptan], the “adverse events on administration to humans” value is listed as “adverse cardiovascular events”.
